Results published in patent US20220143042A1, “FUSED GLYCOSIDASE INHIBITORS” (Asceneuron SA, priority 2019, published 2022).

Biological target: T1, His-Tagged hOGA (Homo sapiens, UniProt O60502)
T1 sequence (O60502 1-916): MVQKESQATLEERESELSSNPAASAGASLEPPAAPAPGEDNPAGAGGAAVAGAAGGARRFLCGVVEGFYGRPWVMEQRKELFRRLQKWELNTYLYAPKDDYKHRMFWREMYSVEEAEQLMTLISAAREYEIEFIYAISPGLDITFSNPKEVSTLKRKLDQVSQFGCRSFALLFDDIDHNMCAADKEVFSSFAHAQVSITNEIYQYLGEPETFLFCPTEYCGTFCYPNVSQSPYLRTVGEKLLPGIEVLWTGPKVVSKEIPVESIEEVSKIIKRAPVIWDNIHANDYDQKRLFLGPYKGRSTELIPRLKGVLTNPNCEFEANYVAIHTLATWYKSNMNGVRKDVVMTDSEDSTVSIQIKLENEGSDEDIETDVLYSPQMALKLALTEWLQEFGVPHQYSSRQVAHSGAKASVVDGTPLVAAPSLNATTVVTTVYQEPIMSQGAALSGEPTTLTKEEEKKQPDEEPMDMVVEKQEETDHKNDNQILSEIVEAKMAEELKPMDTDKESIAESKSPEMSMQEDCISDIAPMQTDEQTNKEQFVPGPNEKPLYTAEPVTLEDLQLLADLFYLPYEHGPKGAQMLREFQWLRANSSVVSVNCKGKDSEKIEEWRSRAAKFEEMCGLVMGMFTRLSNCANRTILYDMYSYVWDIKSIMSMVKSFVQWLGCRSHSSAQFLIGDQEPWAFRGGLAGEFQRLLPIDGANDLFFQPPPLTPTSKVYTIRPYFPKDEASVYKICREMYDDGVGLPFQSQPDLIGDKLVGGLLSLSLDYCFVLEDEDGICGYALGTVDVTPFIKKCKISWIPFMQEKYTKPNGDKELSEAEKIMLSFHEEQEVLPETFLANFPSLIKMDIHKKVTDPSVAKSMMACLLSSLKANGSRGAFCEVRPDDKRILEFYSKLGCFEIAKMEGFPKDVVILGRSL
Experiment: Human O-GlcNAcase enzyme inhibition assay
Format: biochemical
Conditions: OGA enzyme inhibition assay; FL-GlcNAc substrate, 60 min at room temperature, pH 6.5
Method: EXAMPLE B01: HUMAN O-GLCNACASE ENZYME INHIBITION ASSAY
5 μl of the appropriate concentration of a solution of inhibitor in Mcllvaine's Buffer (pH 6.5) in 2% DMSO (for a dose response curve calculation) is added into each well of a 384-well plate (Greiner, 781900). Then, 20 nM of His-Tagged hOGA and 10 μM of FL-GlcNAc (Fluorescein mono-beta-D-(2-deoxy-2-N-acetyl) glucopyranoside; Marker Gene Technologies Inc, M1485) were added to the 384-well plate for a final volume of 20 μl. After incubation for 60 min at room temperature, the reaction was terminated by the addition of 10 μL of stop buffer (200 mM glycine, pH 10.75). The level of fluorescence (λexc 485 nm; (λemm 520 nm) was read on a PHERAstar machine. The amount of fluorescence measured was plotted against the concentration of inhibitor to produce a sigmoidal dose response curve to calculate an IC50. All individual data was corrected by subtraction of the background (Thiamet 3 uM=100% inhibition) whilst 0.5% DMSO was considered as the control value (no inhibition).

| Compound | IC50 |
| --- | --- |
| Cc1nc2c(s1)CCN(C(C)c1ccc3c(c1)OCC3)CC2 (racemic) [Example 20, 6-(1-(2,3-DIHYDROBENZOFURAN-6-YL)ETHYL)-2-METHYL-5,6,7,8-TETRAHYDRO-4H-THIAZOLO[4,5-D]AZEPINE] | < 50 nM |
| CC(c1ccc2scnc2c1)N1CCc2c(-c3ccccc3)nn(C)c2CC1 (racemic) [Example 47, 5-(1-(1-METHYL-3-PHENYL-4,5,7,8-TETRAHYDROPYRAZOLO[3,4-D]AZEPIN-6(1H)-YL)ETHYL)BENZO[D]THIAZOLE] | < 50 nM |
| CC(c1ccc2scnc2c1)N1CCc2nc[nH]c2CC1 (racemic) [Example 161] | 50 to 200 nM |
| CC(c1ccc2scnc2c1)N1CCc2nn(C)c(-c3ccccc3)c2CC1 (racemic) [Example 46, 5-(1-(2-METHYL-3-PHENYL-4,5,7,8-TETRAHYDROPYRAZOLO[3,4-D]AZEPIN-6(2H)-YL)ETHYL)BENZO[D]THIAZOLE] | < 50 nM |
| CC(c1ccc2scnc2c1)N1CCc2c([Si](C)(C)C)nn(C)c2CC1 (racemic) [Example 48, 5-(1-(1-METHYL-3-(TRIMETHYLSILYL)-4,5,7,8-TETRAHYDROPYRAZOLO[3,4-D]AZEPIN-6(1H)-YL)ETHYL)BENZO[D]THIAZOLE] | < 50 nM |
| CC(c1ccc2scnc2c1)N1CCc2cn(C)nc2CC1 (racemic) [Example 1, 5-(1-(2-METHYL-4,5,7,8-TETRAHYDROPYRAZOLO[3,4-D]AZEPIN-6(2H)-YL)ETHYL)BENZO[D]THIAZOLE] | < 50 nM |
| CC(c1ccc2scnc2c1)N1CCCc2nn(C)cc2C1 (racemic) [Example 165, 5-(1-(2-METHYL-2,6,7,8-TETRAHYDROPYRAZOLO[4,3-C]AZEPIN-5(4H)-YL)ETHYL)BENZO[D]THIAZOLE] | 200 to 1000 nM |

The next lines start with the values.

| IC50 | Compound |
| --- | --- |
| < 50 nM | CC(=O)Nc1ncc(CN2CCc3cn(C)nc3CC2)s1 (racemic) [Example 23, N-(5-((2-METHYL-4,5,7,8-TETRAHYDROPYRAZOLO[3,4-D]AZEPIN-6(2H)-YL)METHYL)THIAZOL-2-YL)ACETAMIDE] |
| < 50 nM | CC(=O)Nc1ncc(CN2CCc3nc(C)sc3CC2)s1 (racemic) [Example 26, N-(5-((2-METHYL-4,5,7,8-TETRAHYDRO-6H-THIAZOLO[4,5-D]AZEPIN-6-YL)METHYL)THIAZOL-2-YL)ACETAMIDE] |
| 200 to 1000 nM | CC(=O)Nc1nc2c(s1)CN(C(C)c1ccc3scnc3c1)CCC2 (racemic) [Example 152] |
| 50 to 200 nM | CC(=O)Nc1ncc(CN2CCc3nc(N)sc3CC2)s1 (racemic) [Example 151, N-(5-((2-AMINO-4,5,7,8-TETRAHYDRO-6H-THIAZOLO[4,5-D]AZEPIN-6-YL)METHYL)THIAZOL-2-YL)ACETAMIDE] |
| < 50 nM | Cc1nc2c(s1)CCN(C(C)c1ccc3scnc3c1)CC2 (racemic) [Example 14, 6-(1-(BENZO[D]THIAZOL-5-YL)ETHYL)-2-METHYL-5,6,7,8-TETRAHYDRO-4H-THIAZOLO[4,5-D]AZEPINE] |
| 200 to 1000 nM | CC(=O)Nc1nc2c(s1)CCN(C(C)c1ccc3scnc3c1)CC2 (single isomer, unassigned) [Example 163] |
| < 50 nM | CC(=O)Nc1nc2c(s1)CCN(C(C)c1ccc3scnc3c1)CC2 (racemic) [Example 16] |
| < 50 nM | CC(=O)Nc1ncc(CN2CCc3nncn3CC2)s1 (racemic) [Example 154] |
| < 50 nM | CC(=O)Nc1nc2c(s1)CCN(C(C)c1ccc3scnc3c1)CC2 (single isomer, unassigned) [Example 162] |
